target: T1, Monoamineoxidase B type human-derived enzyme (Homo sapiens, UniProt P27338); assay: Inhibitory effects on the activity of MAO-B (Amplex Red fluorescence, benzylamine substrate); type: biochemical; conditions: read-out: Inhibitory effects (%) on the activity of MAO-B
T1 sequence (P27338 1-520): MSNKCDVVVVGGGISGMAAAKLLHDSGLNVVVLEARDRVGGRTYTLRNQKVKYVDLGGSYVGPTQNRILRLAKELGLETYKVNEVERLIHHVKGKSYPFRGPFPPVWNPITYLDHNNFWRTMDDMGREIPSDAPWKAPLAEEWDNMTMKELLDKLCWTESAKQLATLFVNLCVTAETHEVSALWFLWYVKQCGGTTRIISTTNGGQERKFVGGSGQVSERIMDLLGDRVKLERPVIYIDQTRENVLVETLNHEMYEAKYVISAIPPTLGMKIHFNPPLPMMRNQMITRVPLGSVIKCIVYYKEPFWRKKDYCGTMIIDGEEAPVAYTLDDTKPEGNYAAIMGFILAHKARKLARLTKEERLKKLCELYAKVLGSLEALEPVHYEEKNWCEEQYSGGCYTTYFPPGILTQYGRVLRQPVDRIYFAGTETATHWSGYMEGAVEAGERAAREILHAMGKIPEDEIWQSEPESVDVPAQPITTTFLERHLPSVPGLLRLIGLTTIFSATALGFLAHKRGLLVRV
Protocol: Monoamineoxidase A or B type human-derived enzyme (5 mg/ml) was each diluted with 0.05 M sodium phosphate buffer (pH 7.4) to yield a dilution of 1:200, and then 100 μl of an enzyme buffer containing 2 μl of a compound 1 solution at the corresponding concentration was placed in a test plate (flat-bottom) and incubated for 30 minutes.
100 μl of a working buffer containing 400 μM of Amplex Red reagent, 2 U/ml horseradish peroxidase, and 2 mM substrate (tyramine for MAO-A and benzylamine for MAO-B) in 0.05 M sodium phosphate buffer (pH 7.4) was mixed with a pre-incubated enzyme buffer at 1:1 and measured using fluorescence (EX: 563 nm & EM: 587 nm) for 30 minutes.

Row | Compound | inhibition at 0.01 µM [%]
1 | NC(=O)OCc1nc(-c2ccc(OCc3ccccc3)cc2)ns1 [Example 4, carbamic acid 3-(4-benzyloxy-phenyl)-[1,2,4]thiadiazol-5-ylmethyl ester] | 92
2 | CCCOc1ccc(-c2cc(COC(N)=O)on2)cc1 [Example 42, carbamic acid 3-(4-propoxy-phenyl)-isoxazol-5-ylmethyl ester] | 85.3
3 | CCCCCOc1ccc(-c2cc(COC(N)=O)on2)cc1 [Example 44, carbamic acid 3-(4-pentoxy-phenyl)-isoxazol-5-ylmethyl ester] | 74.3
4 | CCOC(=O)COc1ccc(-c2cc(COC(N)=O)on2)cc1 [Example 47, [4-(5-carbamoyloxymethyl-isoxazol-3-yl)-phenoxy]-acetic acid ethyl ester] | 41.2
5 | NC(=O)OCCCOc1ccc(-c2cc(COC(N)=O)on2)cc1 [Example 52, carbamic acid 3-[4-(5-carbamoyloxymethyl-isoxazol-3-yl)-phenoxy]-propyl ester] | 26.6
6 | NC(=O)OCc1cc(-c2ccc(OCCCCO)cc2)no1 [Example 57, carbamic acid 3-[4-(4-hydroxy-butoxy)-phenyl]-isoxazol-5-ylmethyl ester] | 25
7 | NC(=O)OCc1cc(-c2ccc(OCCCC(F)(F)F)cc2)no1 [Example 59, carbamic acid 3-[4-(4,4,4-trifluoro-butoxy)-phenyl]-isoxazol-5-ylmethyl ester] | 97.4

same assay, conditions: treatment concentration 10 nM

Row | Compound | Inhibitory effects (%) on the activity of MAO-B [%]
8 | 3-[4-(3-chloro-benzyloxy)-phenyl]-isoxazol-5-ylmethyl ester [Example 20] | 96.2
9 | 3-[4-(4-methyl-benzyloxy)-phenyl]-isoxazol-5-ylmethyl ester [Example 28] | 87.4

same assay, conditions: treatment concentration 10 nM; read-out: Inhibitory effects (%) on the activity of MAO-B

Row | Compound | inhibition at 0.01 µM [%]
10 | NC(=O)OCc1cc(-c2ccc(OCc3ccccc3)c(F)c2)no1 [Example 8, carbamic acid 3-(4-benzyloxy-3-fluoro-phenyl)-isoxazol-5-ylmethyl ester] | 72.7
11 | CC(Oc1ccc(-c2cc(COC(N)=O)on2)cc1)c1ccccc1 (stereo not drawn) [Example 10, carbamic acid 3-[4-(1-phenyl-ethoxy)-phenyl]-isoxazol-5-ylmethyl ester] | 98.2
12 | NC(=O)OCc1cc(-c2ccc(OCc3cc(F)cc(F)c3)cc2)no1 [Example 16, carbamic acid 3-[4-(3,5-difluoro-benzyloxy)-phenyl]-isoxazol-5-ylmethyl ester] | 96.5
13 | NC(=O)OCc1cc(-c2ccc(OCc3ccc(F)c(F)c3)cc2)no1 [Example 17, carbamic acid 3-[4-(3,4-difluoro-benzyloxy)-phenyl]-isoxazol-5-ylmethyl ester] | 96.8
14 | NC(=O)OCc1cc(-c2ccc(OCc3cccc(C(F)(F)F)c3)cc2)no1 [Example 19, carbamic acid 3-[4-(3-trifluoromethyl-benzyloxy)-phenyl]-isoxazol-5-ylmethyl ester] | 94.2
15 | NC(=O)OCc1cc(-c2ccc(OCc3ccccc3Cl)cc2)no1 [Example 21, carbamic acid 3-[4-(2-chloro-benzyloxy)-phenyl]-isoxazol-5-ylmethyl ester] | 92.9
16 | NC(=O)OCc1cc(-c2ccc(OCc3cc(F)ccc3Cl)cc2)no1 [Example 25, carbamic acid 3-[4-(2-chloro-5-fluoro-benzyloxy)-phenyl]-isoxazol-5-ylmethyl ester] | 83.2
17 | NC(=O)OCc1cc(-c2ccc(OCc3ccc(C=O)cc3)cc2)no1 [Example 36, carbamic acid 3-[4-(4-formyl-benzyloxy)-phenyl]-isoxazol-5-ylmethyl ester] | 90.1
18 | COc1c(C)cc(COc2ccc(-c3cc(COC(N)=O)on3)cc2)nc1C [Example 68, Carbamic acid 3-[4-(5-methoxy-4,6-dimethyl-pyridin-2-ylmethoxy)-phenyl]-isoxazol-5-ylmethyl ester] | 63.4

Results, then the compound that gave them:

Row | inhibition at 0.01 µM [%] | Compound
19 | 88.3 | NC(=O)OCc1cc(-c2ccc(OCc3ccccc3)cc2Cl)no1 [Example 5, carbamic acid 3-(4-benzyloxy-2-chloro-phenyl)-isoxazol-5-ylmethyl ester]
20 | 75.9 | NC(=O)OCc1cc(-c2ccc(OCc3ccccc3)c(Cl)c2)no1 [Example 7, carbamic acid 3-(4-benzyloxy-3-chloro-phenyl)-isoxazol-5-ylmethyl ester]
21 | 102 | NC(=O)OCc1cc(-c2ccc(OCc3ccc(F)cc3)cc2)no1 [Example 13, carbamic acid 3-[4-(4-fluoro-benzyloxy)-phenyl]-isoxazol-5-ylmethyl ester]
22 | 96.2 | NC(=O)OCc1cc(-c2ccc(OCc3cccc(F)c3F)cc2)no1 [Example 15, carbamic acid 3-[4-(2,3-difluoro-benzyloxy)-phenyl]-isoxazol-5-ylmethyl ester]
23 | 91.5 | NC(=O)OCc1cc(-c2ccc(OCc3c(F)cc(F)cc3F)cc2)no1 [Example 18, carbamic acid 3-[4-(2,4,6-trifluoro-benzyloxy)-phenyl]-isoxazol-5-ylmethyl ester]
24 | 86 | NC(=O)OCc1cc(-c2ccc(OCc3ccc(Cl)cc3)cc2)no1 [Example 22, carbamic acid 3-[4-(4-chloro-benzyloxy)-phenyl]-isoxazol-5-ylmethyl ester]
25 | 92.7 | NC(=O)OCc1cc(-c2ccc(OCc3c(Cl)cccc3Cl)cc2)no1 [Example 23, carbamic acid 3-[4-(2,6-dichlorobenzyloxy)-phenyl]-isoxazol-5-ylmethyl ester]
26 | 83.3 | NC(=O)OCc1cc(-c2ccc(OCc3cc(Cl)ccc3Cl)cc2)no1 [Example 24, carbamic acid 3-[4-(2,5-di-chloro-benzyloxy)-phenyl]-isoxazol-5-ylmethyl ester]
27 | 87.3 | NC(=O)OCc1cc(-c2ccc(OCc3cccc([N+](=O)[O-])c3)cc2)no1 [Example 26, carbamic acid 3-[4-(3-nitro-benzyloxy)-phenyl]-isoxazol-5-ylmethyl ester]
28 | 75.2 | COC(=O)c1ccc(COc2ccc(-c3cc(COC(N)=O)on3)cc2)cc1 [Example 27, 4-[4-(5-carbamoyloxymethyl-isoxazol-3-yl)-phenoxymethyl]-benzoic acid methyl ester]
29 | 80.3 | Cc1ccccc1COc1ccc(-c2cc(COC(N)=O)on2)cc1 [Example 29, carbamic acid 3-[4-(2-methyl-benzyloxy)-phenyl]-isoxazol-5-ylmethyl ester]
30 | 90.2 | COc1cccc(COc2ccc(-c3cc(COC(N)=O)on3)cc2)c1 [Example 30, Carbamic acid 3-[4-(3-methoxy-benzyloxy)-phenyl]-isoxazol-5-ylmethyl ester]
31 | 84.4 | CC(C)c1ccc(COc2ccc(-c3cc(COC(N)=O)on3)cc2)cc1 [Example 32, Carbamic acid 3-[4-(4-isopropyl-benzyloxy)-phenyl]-isoxazol-5-ylmethyl ester]
32 | 90.4 | NC(=O)OCc1cc(-c2ccc(OCc3cccc(C=O)c3)cc2)no1 [Example 35, carbamic acid 3-[4-(3-formyl-benzyloxy)-phenyl]-isoxazol-5-ylmethyl ester]
33 | 32.8 | NC(=O)OCc1cc(-c2ccc(OCc3nc4ccccc4s3)cc2)no1 [Example 64, Carbamic acid 3-[4-(benzothiazol-2-ylmethoxy)-phenyl]-isoxazol-5-ylmethyl ester]
34 | 27.1 | NC(=O)OCc1cc(-c2ccc(OCc3ccc4ccccc4n3)cc2)no1 [Example 70, Carbamic acid 3-[4-(quinolin-2-ylmethoxy)-phenyl]-isoxazol-5-ylmethyl ester]
35 | 58.1 | COC(=O)c1ccc(COc2ccc(-c3cc(COC(N)=O)on3)cc2)o1 [Example 73, 5-[4-(5-carbamoyloxymethyl-isoxazol-3-yl)-phenoxymethyl]-furan-2-carboxylic acid methyl ester]
36 | 87 | NC(=O)OCc1cc(-c2ccc(NCc3ccc(F)cc3)cc2)no1 [Example 76, Carbamic acid 3-[4-(4-fluoro-benzylamino)-phenyl]-isoxazol-5-ylmethyl ester]
37 | 77.1 | NC(=O)OCc1cc(-c2ccc(NCc3cccc(F)c3)cc2)no1 [Example 77, Carbamic acid 3-[4-(3-fluoro-benzylamino)-phenyl]-isoxazol-5-ylmethyl ester]
38 | 84.7 | NC(=O)OCc1cc(-c2ccc(NCc3ccccc3F)cc2)no1 [Example 78, Carbamic acid 3-[4-(2-fluoro-benzylamino)-phenyl]-isoxazol-5-ylmethyl ester]

same assay, conditions: treatment concentration 100 nM

Row | inhibition at 0.1 µM [%] | Compound
39 | 96.2 | NC(=O)OCc1cc(-c2ccc(OCc3cccc(C(F)(F)F)c3)cc2)no1 [Example 31, Carbamic acid 3-[4-(3-trifluoromethyl-benzyloxy)-phenyl]-isoxazol-5-ylmethyl ester]

From patent US8828992B2, “Substituted azole derivatives, pharmaceutical composition containing the derivatives, and method for treating Parkinson's disease using the same” (priority 2009, dated 2014)
